Values quoted from earlier work in patent publication US10144908B2, “Liquid soap having enhanced antibacterial activity” (Conopco, Inc., priority 2013, dated 2018).

Details: in water at 25° C.

Compound: O=C([O-])CC(O)(CC(=O)[O-])C(=O)[O-].[Ag+].[Ag+].[Ag+] [Silver citrate]
- Ksp: 2.5e-16 mol/L
